Reference: patent US7220822B2, “CD28 mimetics for blocking T cell mediated immune reactions” (The Ohio State University, priority 2000, dated 2007)
Square brackets hold non-standard residues; d marks the D form. Peptide text beside a SMILES is read from it.

Key:
[1] = system: CD4+ LNC from Vα4/Vβ8.2 TCR transgenic mice; format: cell-based, mouse; settings: CD4+ LNC and spleen cells, NAc 1-11 10 μg/ml, all concentrations used
Description: The in vitro effect of varying concentration of the CD 28 peptide mimetics on CD4+ lymph node cells and spleen cells from transgenic mice bearing the Vα 4 Vβ8.2 TCR specific for MBP Ac 1-11 was determined.
CD4+ T cells were purified from pooled peripheral lymph nodes (inguinal, axillary, brachial, cervical, popliteal), and mesenteric lymph nodes and spleen of 6–8 wk old Vα4/Vβ8.2 TCR transgenic mice by positive selection. Single cell suspensions were prepared by lympholyte M gradient, washed, counted and incubated with magnetic bead conjugated anti-mouse CD4 (L3T4) (Miltenyi Biotech Corporation) followed by positive selection using magnetic selection columns. Purity of the CD4^+ cells was greater than 90% as assessed by staining with FITC labeled anti-mouseVβ8.2 mAb (Pharmingen). During the selection process, T cells maintain a naïve phenotype with no evidence for T cell activation as measured by proliferation in culture. Purified CD4+ T-cells (5×10^4 cells/well) were cultured together with wild type splenocytes from B10.PL mice as APC's (10^5 cells/well) in RPMI 1640 containing 10% FCS, 25 mM HEPES, 2 mM L-glutamine, 50 U/ml penicillin, 50 μg/ml streptomycin, and 5×10–5 M 2-ME in round-bottom 96-well plates and MBP (40 μg/ml) or MBP NAc1-11 (10 μg/ml) or media only in the presence or absence of synthetic CD28 peptide analogues at different concentrations in triplicate wells for 72 h, including a final 18-h pulse with [^3H] thymidine. Cultures were harvested onto glass-fiber mats using a Skatron harvester (Skatron, Sterling, Va.) and were counted by liquid scintillation on LKB Betaplate (LKB, Rockville, Md.). The means of the triplicate were determined and the results are expressed as delta cpm (mean counts per minute of cultures with Ag-mean counts per minute of cultures with medium alone)±SD.

B10.PL mice with EAE = assay: EAE in B10.PL mice immunized with GP-MBP in CFA, clinical score; format: in vivo, mouse; settings: for mean maximal clinical score: single i.v. 500 μg on day 14 post-immunization (established EAE); for maximum disease incidence / maximum mean cumulative score per day: single i.v. 500 μg on the day of immunization
Description: Female B10.PL mice (6–8 wk old) were obtained from The Jackson laboratory (Bar Harbor, Me.) and housed at the Ohio State University, (Columbus, Ohio).
Mice were injected subcutaneously over four sites on the flank with an emulsion containing 200 μg of guinea-pig-MBP in CFA containing 200 μg heat killed Mycobacterium tuberculosis, Jamaica strain. Pertussis toxin (List Biological, Campbell, Calif.) at 150 ng in 0.2 ml of PBS was given intraperitoneally at the time of immunization and 48 hours later. Animals were observed daily for clinical signs and scored as follows: 1, limp tail or waddling gait with tail tonicity; 2, waddling gait with limp tail (ataxia); 2.5 ataxia with partial paralysis of one limb, 3, partial hind-limb paralysis, 3.5 full paralysis of one limb with partial paralysis of the second limb, 4, full paralysis of two limbs, 4.5 moribund and 5, death. All mice immunized with MBP (200 μg) in CFA developed clinical disease varying between ataxia and complete hind limb paralysis by day 14 post-immunization. They were then distributed randomly into six groups with mean clinical score of each group approximately the same.
Groups of mice were left untreated or injected intravenously with 500 μg of EL CD28 or RI CD28 peptide mimetics, or LCD28, RLCD28 and DCD28 peptides. The mean clinical score of untreated mice continued to increase reaching a maximum of 3.4 on day 20. Similarly the disease continued to progress in mice treated with LCD28, RLCD28 and DCD28, reaching mean maximal clinical score of 3.8 (day 18), 3.4 (day 16 ) and 3.7 (day 16) respectively.
The biological activity of synthetic CD28 peptide analogues during antigen priming in vivo in EAE was then shown. B10.PL mice immunized with GP-MBP (200 μg) in CFA were either left untreated or injected intravenously 500 μg of EL CD28 or RI CD28 peptide mimetics or LCD28, RLCD28 and DCD28 peptides on the day of immunization. The vehicle treated mice and mice treated with: LCD28, RL CD28 and D CD28 peptide had maximum disease incidence of 100%, 100%, 91.5% and 91.5% and maximum mean cumulative score per day of 1.9, 1.8, 1.7 and 2 respectively. […] The effect of RI CD28 peptide injection lasted for the duration of observation (37 days) in one experiment.

CD80-Ig = molecular target: T1, CD80-Ig (Homo sapiens, UniProt P33681); assay: Direct kinetic analysis of CD28 peptide binding to immobilized CD80-Ig by surface plasmon resonance (BIACORE)
T1 construct: extracellular domain of CD80 fused with the constant region of mouse IgG1 heavy chain
T1 sequence (P33681 35-242 limits assumed, other chains not shown): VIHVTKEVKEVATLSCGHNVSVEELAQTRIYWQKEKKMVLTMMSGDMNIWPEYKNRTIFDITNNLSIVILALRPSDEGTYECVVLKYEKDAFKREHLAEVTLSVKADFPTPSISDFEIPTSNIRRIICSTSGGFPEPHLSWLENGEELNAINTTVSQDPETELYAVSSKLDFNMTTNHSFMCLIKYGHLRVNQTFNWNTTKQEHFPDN
Description: Binding experiments were performed by surface plasmon resonance (SPR) on an instrument sold under the trademark BIACORE™ from Pharmacia Biosensor (Uppasala, Sweden).
CD80-Ig (extracellular domain of CD80 fused with the constant region of mouse IgG1 heavy chain) at 35 μg/ml in 10 mM sodium acetate buffer, pH 4.2, was coupled to a research grade CM 5 sensor chip using a standard amine coupling procedure with the following modifications (38). To reduce the immobilization level of the ligand, the surface was activated for 3 (instead of 7) minutes with N-hydroxysuccinamide and […]. […] Following coupling, noncovalently bound ligand was removed by washing twice with 5 mM NaOH.
The analytes were also injected at the same concentration and injection times over an empty flow cell with nothing immobilized.
Data analysis was performed with BIAEVALUATION™ software version 2.1(Pharmacia Biosensor AB). […] Prior to kinetic analysis, data were adjusted to zero baseline level by subtracting the background responses obtained by injection of the analytes through a control flow cell with no ligand immobilized. First, the dissociation rate constant, kd, (units: s^−1) was determined, by fitting experimental data from the buffer flow part of the sensogram to the equation R(t)=R1*e^−kd*(t^0^−t^1^) (1) where t0 is the injection time, R1 is the response level at the start of dissociation time t1 and kd is the dissociation rate constant.
The kd value obtained was used as a constant during the analysis of the injection phase data. Binding data above the noise level was selected by converting the sensogram to a plot of the logarithm of the binding rate vs time (dR/dt vs. time). The ka was determined by nonlinear curve fitting of the following equation R(t)=Req*{1−e^−(k^a^*C+k^d^)*(t) (2) where R(t) is the response at time t, Req is the steady state response level, ka is the association rate constant (units: M^−1s^−1), kd is the dissociation rate constant and C is the concentration of the injected peptide analyte. An offset was added to account for the refractive index differences between the analyte and the running buffer.
After analyzing sensograms obtained from injections of increasing concentrations of peptide analytes or CD28-Ig, the experimental data was analyzed using the BIAsimulation software 2.1. A plot of the logarithm of (dR/dt) against time was calculated from the sensograms, and then the slopes at different concentrations were plotted against the concentrations of the peptide analyte. Different angles obtained of the linear lines represent the variation of affinities, which gives the association rate constant (ka) from the equation ln dR/dt=ln(kaCR max)−KaC+kd)t (4) where dR/dt is the rate of change of the SPR signal, C is the concentration of the analyte, Rmax is the maximum analyte binding capacity in RU and R is the SPR signal in RU at time t. The dissociation rate constant is obtained from the equation Kd=kd/ka (5)

[2] = system: lymph node cells of MBP-primed mice; assay: IL-2 ELISPOT of draining lymph node cells from peptide-treated MBP-immunized mice; format: in vivo, mouse; settings: mice treated on day 0 of immunization, ELISPOT on restimulation
Description: Ninety-six well unifilter plates (Polyfiltronics, Rockland, Md.) were coated overnight at 4° C. with rat anti-mouse IL-2 (Clone JES6-1A12) (Pharmingen, Calif.) at 4 μg/ml. The plates were then washed 4× with sterile PBS and blocked with 1% BSA in DMEM for 2 h at room temperature. Subsequently, isolated single cell suspensions of CD4+ LNC (5×10^6 cells/ml) and splenocytes (10×10^6 cells/ml) were added with the antigens and CD28 peptides under the conditions as specified for the proliferation assays. After 24 h of culture in the incubator, the cells were removed by washing 3× with PBS and 4× with PBS containing Tween (1:2000) (PBST). Then biotinylated anti mouse-IL-2 (Clone JES6-5H4) (Pharmingen, Calif.) 2 μg/ml was added and incubated at 4° C. overnight. After washing 3× with PBST and 3× with PBS, goat anti-biotin antibody conjugated to alkaline phosphatase (Vector Laboratories Inc, Burlingame, Calif.) diluted to 1:1000 in PBST containing 1% BSA was added and incubated for 2 h at room temperature. The spots were visualized by adding BCIP/NBT phosphatase substrate (Kirkeguard & Perry Laboratories, Gaithesburg, Md.). Image analysis of ELISA spot assays was performed on a Series 1 Immunospot Image Analyzer (Autoimmun Diagnostika (US) Inc.) customized for analyzing ELISA spots to meet objective criteria for size, chromatic density, shape and color.
MBP reactive T cells that induce EAE are known to display a Th1 phenotype secreting the proinflammatory cytokines IL-2, […] and TNF-β (36. Kay, B. K., M. P. Williamson, and M. Sudol. 2000. Faseb J 14, no. 2:231). ELISPOT assay was used to assess in vitro cytokine production by draining lymph node cells and splenocytes upon restimulation from in vivo MBP-primed T cells. Mice were treated as described in Example 3, on day 0 of immunization.

| Molecule | proliferative response / inhibition of T cell proliferation (in words) [1] | mean maximal clinical score (B10.PL mice with EAE) | maximum disease incidence (B10.PL mice with EAE) [%] | maximum mean cumulative score per day (B10.PL mice with EAE) | maximum response units obtained for binding to CD80-Ig (CD80-Ig; SPR direct binding) [RU] | frequency of IL-2 secreting lymph node cells [2] | binding to CD80-Ig (in words) (CD80-Ig; data not shown) |
| --- | --- | --- | --- | --- | --- | --- | --- |
| CC[C@H](C)[C@H](NC(=O)[C@@H](NC(=O)CNC(=O)[C@H](CC(N)=O)NC(=O)[C@H](CO)NC(=O)[C@H](CCCNC(=N)N)NC(=O)[C@H](CCC(=O)O)NC(=O)[C@H](CC(N)=O)NC(=O)[C@H](CC(=O)O)NC(=O)[C@H](CC(C)C)NC(=O)[C@H](Cc1ccc(O)cc1)NC(=O)[C@@H]1CCCN1C(=O)[C@@H]1CCCN1C(=O)[C@@H]1CCCN1C(=O)[C@H](Cc1ccc(O)cc1)NC(=O)[C@H](CCSC)NC(=O)[C@H](Cc1ccccc1)NC(=O)[C@H](CCC(=O)O)NC(=O)[C@@H](NC(=O)[C@@H](N)CCCCN)[C@@H](C)CC)[C@@H](C)O)C(=O)O [L CD28, NH2KIEFMYPPPYLDNERSNGTICOOH] (H-KIEFMYPPPYLDNERSNGTI-OH) | significantly less | 3.8 | 100 | 1.8 | 478 |  |  |
| CH3COD[KIEFMYPPPYLDNERSNGTI]DCONH2 (Ac-[dK][dI][dE][dF][dM][dY][dP][dP][dP][dY][dL][dD][dN][dE][dR][dS][dN]G[dT][dI]-NH2) [D CD28, D-peptide (Control), reference compound] | did not show inhibition | 3.7 | 91.5 | 2 |  | 2675+/−14.2 |  |
| CH3COL[ITGNSRENDLYPPPYMFEIK]LCONH2 (Ac-ITGNSRENDLYPPPYMFEIK-NH2) [RL CD28, Reverse-L-peptide (Control), reference compound] | did not show inhibition | 3.4 | 91.5 | 1.7 |  | 3386+/−23.3 |  |
| MYPPPY (listed as Homo sapiens) [hexapeptide, reference compound] | did not show inhibition |  |  |  |  |  | did not bind |
